Assay results from publication PMC11178787, “Development of a natural product optimization strategy for inhibitors against MraY, a promising antibacterial target” (Nature Communications, 2024).
Values after ≈ are worked out from the molar mass of the structure shown.

Assays:
P. aeruginosa ATCC 27853 = system: T1, P. aeruginosa ATCC 27853; assay: microbe, parasite or virus in culture; details: Pseudomonas aeruginosa, ATCC27853
T1 construct: ATCC 27853
Description: (§1) MICs were determined by a microdilution broth method as recommended by the CLSI with MHB-II. For MICs of stable analogues, a 2-fold dilution of each compound was prepared in DMSO at 100-fold of the final concentration. The strains were inoculated with 5 × 10^5 cfu/mL in 96-well plates (each 100 μL/well), and 1 μL of DMSO solutions of the samples were added (contained less than 1% DMSO). The plates were incubated at 37 °C for 18 h and then MICs were determined. MICs of stable analogues in Table 1 were the highest value in three trials. MICs in Supplementary Table 1 were determined in one trial.  Fig. 2 Results of biological evaluations of hydrazone library. a General structures of hydrazine fragment moiety are shown. Each hydrazine class are represented by different colours (green; BZ, cyan; PA, grey; AC, yellow; AA, orange; LA). b–h MraY inhibitory activity and antibacterial activity of the hydrazone library. The bar graphs show the relative enzyme activity with DMSO as 100% when the compound is treated at given concentration (b,c; TUN at 100 nM, d,e; MRY at 10 nM, f.g; MRD at 100 nM, h; CAP at 1000 nM. n = 1), with the lower bars indicating higher inhibitory activity. The colour of the bars corresponds to Fig. 2a. […] Data of control compounds (van: vancomycin, col: colistin) are shown left column in each panel. E. faecium ATCC 35667, S. aureus ATCC 29213, P. aeruginosa ATCC 27853, K. pneumoniae ATCC 13883, E. cloacae ATCC 13047, A. baumannii ATCC 19606, E. coli ATCC 25922.

E. cloacae ATCC 13047 = system: T2, E. cloacae ATCC 13047; assay: microbe, parasite or virus in culture; details: Enterobacter cloacae, ATCC13047
T2 construct: ATCC 13047
Description: as §1

K. pneumoniae ATCC 13883 = system: T3, K. pneumoniae ATCC 13883; assay: microbe, parasite or virus in culture; details: Klebsiella pneumoniae, ATCC13883
T3 construct: ATCC 13883
Description: as §1

S. aureus ATCC 29213 = system: T4, S. aureus ATCC 29213; assay: microbe, parasite or virus in culture; details: Staphylococcus aureus, ATCC29213
T4 construct: ATCC 29213
Description: as §1

A. baumannii ATCC 19606 = system: T5, A. baumannii ATCC 19606; assay: microbe, parasite or virus in culture; details: Acinetobacter baumannii, ATCC19606
T5 construct: ATCC 19606
Description: as §1

E. coli ATCC 25922 = system: T6, E. coli ATCC 25922; assay: microbe, parasite or virus in culture; details: Escherichia coli, ATCC25922
T6 construct: ATCC 25922
Description: as §1

E. faecium ATCC 35667 = system: T7, E. faecium ATCC 35667; assay: microbe, parasite or virus in culture; details: Enterococcus faecium, ATCC35667
T7 construct: ATCC 35667
Description: as §1

MraYSA (S. aureus MraY) = MraYSA (S. aureus MraY) (Staphylococcus aureus, UniProt Q2FZ93); assay: fluorescence assay of dansylated lipid I formation; assay type: biochemical
Sequence of MraYSA (S. aureus MraY) (Q2FZ93 whole entry): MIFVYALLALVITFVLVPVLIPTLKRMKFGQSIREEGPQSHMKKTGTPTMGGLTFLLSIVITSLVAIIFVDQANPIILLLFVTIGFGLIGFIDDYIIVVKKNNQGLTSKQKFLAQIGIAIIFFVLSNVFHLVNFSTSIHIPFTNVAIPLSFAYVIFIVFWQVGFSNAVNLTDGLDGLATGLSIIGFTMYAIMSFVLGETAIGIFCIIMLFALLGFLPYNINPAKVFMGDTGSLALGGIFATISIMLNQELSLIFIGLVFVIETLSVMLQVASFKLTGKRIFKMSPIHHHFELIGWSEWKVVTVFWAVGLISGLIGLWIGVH

| Compound | MIC (P. aeruginosa ATCC 27853) | MIC (E. cloacae ATCC 13047) | MIC (K. pneumoniae ATCC 13883) | MIC (S. aureus ATCC 29213) | MIC (A. baumannii ATCC 19606) | MIC (E. coli ATCC 25922) | MIC (E. faecium ATCC 35667) | IC50 (MraYSA (S. aureus MraY)) |
| --- | --- | --- | --- | --- | --- | --- | --- | --- |
| CO[C@H]1/C=C/O[C@@]2(C)Oc3c(C)c(O)c4c(O)c(c(/C=N/N5CCN(C)CC5)c(O)c4c3C2=O)NC(=O)/C(C)=C\C=C\[C@H](C)[C@H](O)[C@@H](C)[C@@H](O)[C@@H](C)[C@H](OC(C)=O)[C@@H]1C [rifampicin] | 50 µM (≈ 41.1 µg/mL) | 50 µM (≈ 41.1 µg/mL) | 50 µM (≈ 41.1 µg/mL) | < 0.5 µM | 5 µM (≈ 4.11 µg/mL) | 5 µM (≈ 4.11 µg/mL) | 5 µM (≈ 4.11 µg/mL) |  |
| CC[C@H]1OC(=O)[C@H](C)[C@@H](O[C@H]2C[C@@](C)(OC)[C@@H](O)[C@H](C)O2)[C@H](C)[C@@H](O[C@@H]2O[C@H](C)C[C@H](N(C)C)[C@H]2O)[C@](C)(O)C[C@@H](C)CN(C)[C@H](C)[C@@H](O)[C@]1(C)O [azithromycin] | 50 µM (≈ 37.4 µg/mL) | 50 µM (≈ 37.4 µg/mL) | 5 µM (≈ 3.74 µg/mL) | 5 µM (≈ 3.74 µg/mL) | 50 µM (≈ 37.4 µg/mL) | 5 µM (≈ 3.74 µg/mL) | < 0.5 µM |  |
| CC[C@H]1OC(=O)[C@H](C)[C@@H](O[C@H]2C[C@@](C)(OC)[C@@H](O)[C@H](C)O2)[C@H](C)[C@@H](O[C@@H]2O[C@H](C)C[C@H](N(C)C)[C@H]2O)[C@](C)(O)C[C@@H](C)C(=O)[C@H](C)[C@@H](O)[C@]1(C)O [erythromycin] | > 50 µM | > 50 µM | > 50 µM | < 0.5 µM | 50 µM (≈ 36.7 µg/mL) | 50 µM (≈ 36.7 µg/mL) | < 0.5 µM |  |
| CN[C@@H]1[C@H](O[C@H]2[C@H](O[C@H]3[C@H](O)[C@@H](O)[C@H](N=C(N)N)[C@@H](O)[C@@H]3N=C(N)N)O[C@@H](C)[C@]2(O)C=O)O[C@@H](CO)[C@H](O)[C@H]1O [streptomycin] | 50 µM (≈ 29.1 µg/mL) | > 50 µM | 50 µM (≈ 29.1 µg/mL) | 50 µM (≈ 29.1 µg/mL) | > 50 µM | 50 µM (≈ 29.1 µg/mL) | 50 µM (≈ 29.1 µg/mL) |  |
| CC(C)(C)c1ccc(C(=O)N/N=C/c2ccc(CN[C@H](C(=O)O)[C@H](O[C@@H]3O[C@H](CN)[C@@H](O)[C@H]3O)[C@H]3O[C@@H](n4ccc(=O)[nH]c4=O)[C@H](O)[C@@H]3O)cc2)cc1 [MRYp-BZ2] |  |  |  |  |  |  |  | 2.4 nM |
